# Laboratory results reported in patent US4620871A (priority 1980, dated 1986).
# Experiments:
# [1] = tested on: maize for silage; experiment: Green weight and nitrogen content of maize for silage (Example 28); type: in vivo; conditions: for Green weight: 2 kg/ha to soil, 200 m^2 parcels, control 365; for Total nitrogen content, absolute: control 0.30; for Real protein content, absolute: control 1.35; for Crude proteins, absolute: control 1.85; for Total carbon content, absolute: control 8.99; for Air-dry substance, absolute: control 20.57
# Protocol: The tests were performed on parcels 200 m^2 in area. The compositions according to the invention were utilized as solid formulations, and were diluted with water prior to applying them onto the soil. The active agent was applied to the soil in an amount of 2 kg/ha directly before sowing. The green weight of the maize for silage, harvested from the treated and control parcels, was measured, and the dry substance content, crude protein content, real protein content, nitrogen content and carbon content of the green plants were determined.
# [2] = tested on: Tobacco callus; experiment: Daily growth, cell number and frequency of mitosis of tobacco callus (Example 13); type: cell-based; conditions: for Cell number/g / Daily growth: 10 ppm active agent, 3 weeks
# Protocol: An untreated culture medium served as control. Tobacco callus was grown on the treated and untreated culture media (incubation period: 3 weeks), and the daily growth, the increase in cell number and the frequency of mitosis were measured according to the method of Skoog.
# [3] = tested on: Libelulla wheat variety; experiment: Grain yield of Libelulla wheat (Example 31); type: in vivo; conditions: for Weight of grains, increase: in vivo; for Weight of grains collected from 100 ears: seed 2 kg/ha + soil 2 kg/ha, control 215.79
# Protocol: Two wheat varieties, Libelulla and Mexican 226 K, were utilized in the tests performed under large-parcel field conditions. The sowing seeds were coated with the compositions of the invention according to the wet powder seed dressing technique; a dosis of 2 kg/ha was applied.
# The soil was also treated with the compositions according to the invention directly before sowing. A dose of 2 kg/ha was applied.
# The grain yields of the wheat varieties, harvested from the treated and control parcels, were measured, and the total nitrogen content and protein nitrogen content of the grains were determined.
# [4] = tested on: callus isolated from Datura innoxia Mill. roots; experiment: Growth of callus isolated from Datura innoxia Mill. roots (Example 15); type: cell-based; conditions: for percentage growth promoting effect: control = 100, 30240 min
# [5] = tested on: hybrid maize; experiment: Grain yield of maize (Example 29); type: in vivo; conditions: for Grain yield, increase: in vivo; for Grain yield: seed dressing 0.5 kg/ha + sprays 3, 1, 2 kg/ha, control 132.8
# Protocol: The compositions according to the invention were applied as seed dressing agents onto the sowing-seeds of hybrid maize in a dosis of 0.5 kg/ha. The powdery compositions were wetted with water prior to application. The stand was sprayed three times during the cultivation period: first at the four-leaves development stage with a dosis of 3 kg/ha, then prior to tasseling with a dosis of 1 kg/ha, and finally prior to pollen ripening with a dosis of 2 kg/ha. The crop was evaluated as May shelled corn.
# [6] = tested on: green parts of maize; experiment: Stimulation of plant photolysis, HTO, maize (Example 22); conditions: 2 hours; for Radioactivity: 500 ppm, control 4.64
# Protocol: The compositions according to the invention were diluted with distilled water to an active agent content of 500 ppm, and green parts of maize, weighing 200 mg, were treated with the resulting solutions for 2 hours. Thereafter the treated green plant parts were treated for one hour with 10 μCi/50 ml HTO, then the plant parts were frozen with liquid nitorgen, triturated, subjected to chromatographic separation, and the radioactivity of the isolated glycerol aldehyde was determined.
# In the control test the green parts of maize were treated with distilled water only.
# [7] = tested on: leaves of Pinto bean; experiment: Protein synthesis, glycine-2-14C incorporation in Pinto bean leaves (Example 19); conditions: 18 hours, zeatin 20 ppm, kinetin/benzyladenine 30 ppm, others 200 ppm
# Protocol: The tests were performed on leaves of Pinto bean. The leaf segments were treated with an endogeneous cytokinin (zeatin), synthetic cytokinins (kinetin, benzyladenine) or with the compositions according to the invention, respectively, by floating the leaf segments on the solution of the test substance for 18 hours. Thereafter the leaf segments were exposed to a labelled amino acid (glycine-2-^14 C) for 3 hours, and the incorporation of the amino acid was determined by radiometry.
# [8] = tested on: Pannonia vine variety; experiment: Berry yield and sugar content of vine, Pannonia (Example 33); type: in vivo; conditions: for Berry yield: 3 x 2 kg/ha, control 216; for Sugar content: control 13.0; for Sugar yield: control 28.08
# Protocol: Vine stands were sprayed with the compositions according to the invention to examine their effects exerted on the berry yield and sugar content. The compositions, diluted with water, were sprayed three times onto the plants. The first treatment was performed prior to flowering, the second one three weeks later, and the third one six weeks after the first one. The dose applied was 2 kg/ha in each of the treatments.
# Comparative tests were also performed with commonly used growth regulating compositions, i.e. CCC (chlorocholine chloride), Ethrel (or Etefon; 2-chloroethylphosphonic acid) and Nevirol (N-phenyl-phthalaiminic acid). The results were compared to those observed with the untreated controls.
# Two vine varieties, Pannonia and Egri leanyka, were involved in the tests.
# [9] = tested on: Soybean; experiment: Grain yield of soybean (Example 30); type: in vivo; conditions: 3 x 2 kg/ha; for Grain yield: control 29.53
# Protocol: Soybean cultures were sprayed three times with the compositions according to the invention. The active agents were applied in a dosis of 2 kg/ha, in all of the treatments. The stand was sprayed first at the beginning of flowering, then at the flowering of the apical cluster, and finally two weeks after the second treatment.
# The grain yield of soybean, harvested from the treated and control parcels, was measured.
# [10] = tested on: soybean leaf segments; experiment: Stimulation of the protein level of soybean, glycine-14C incorporation (Example 18); conditions: 24 hours; for Radioactivity: 200 ppm, control 11.9
# Protocol: The active agent to be tested was dissolved in distilled water to form a 200 ppm solution, and soybean leaf segments, weighing 200 mg, were floated on the surface of the solution for 24 hours. In the control test leaf segments, weighing 200 mg, were floated on the surface of distilled water.
# The leaf segments were washed with distilled water, and then treated for 3 hours with 20 ml of a solution containing labelled amino acid (glycine-^14 C; activity: 2 μCi). After this exposition period the leaf segments were washed with an aboundant amount of water, and the protein content of the leaf segments was isolated in a manner known per se. Stock solution was prepared from the isolated protein, and the specific radioactivity of the solution was determined by liquid scintillation.
# [11] = tested on: Wheat; experiment: Stimulation of nutrient uptake, labelled phosphate, wheat (Example 24); conditions: for labelled phosphate in nucleic acid fraction: 200 ppm, control 17.4
# Protocol: The compositions according to the invention were diluted with distilled water to an active agent concentration of 200 ppm, and leaf segments of wheat, maize and pea, weighing 200 mg each, were treated with the solutions. Thereafter the treated green leaf segments were treated for 0.5 hours with a solution of labelled phosphate ions (radioactivity: 30 μCi/50 ml). After this exposition period the treated leaf segments and the untreated controls were processed in a manner known per se to isolate the nucleic acid fractions, and the isolated nucleic acid fractions were dissolved in 6 n ammonium hydroxide solution. Stock solutions were prepared from the resulting solutions, and the amount of labelled phosphate ions present in the stock solutions were measured by liquid scintillation.
smiles,measurement,setting,value
"N=C(N)N.N=C(N)N.Oc1nnc(O)c2ccccc12 [1,4-dihydroxyphthalazine diguanidine salt]",Green weight,[1],374 kg
same,"Total nitrogen content, absolute",[1]; 2 kg/ha,0.40%
same,"Real protein content, absolute",[1]; 2 kg/ha,1.71%
same,"Crude proteins, absolute",[1]; 2 kg/ha,2.52%
same,"Total carbon content, absolute",[1]; 2 kg/ha,9.99%
same,"Air-dry substance, absolute",[1]; 2 kg/ha,22.79%
same,Cell number/g,[2],266.0 10^4 units
same,Daily growth,[2],19.3 mg
same,activity at 10 ppm,"[2]; Nicotiana tabacum, 504 h, 10 ppm, untreated control = 100",117%
same,"Weight of grains, increase",[3],7%
same,Weight of grains collected from 100 ears,[3],232.35 g
same,Dry substance,[4]; with kinetin (2 ppm),3.53%
same,Dry weight of the callus,[4]; with kinetin (2 ppm),269.07 mg
same,Fresh weight of the callus,[4]; with kinetin (2 ppm),7.6110 g
same,"Growth, dry weight",[4]; with kinetin (2 ppm),24.46
same,"Growth, fresh weight",[4]; with kinetin (2 ppm),24.37
same,Speed of growth,[4]; with kinetin (2 ppm),149.20 mg/day
same,percentage growth promoting effect,[4]; with kinetin,156%
same,Dry substance,[4]; without kinetin,7.14%
same,Dry weight of the callus,[4]; without kinetin,66.11 mg
same,Fresh weight of the callus,[4]; without kinetin,0.9258 g
same,"Growth, dry weight",[4]; without kinetin,5.25
same,"Growth, fresh weight",[4]; without kinetin,2.08
same,Speed of growth,[4]; without kinetin,12.77 mg/day
same,percentage growth promoting effect,[4]; without kinetin,648%
same,"Grain yield, increase",[5],37.0%
same,Grain yield,[5],181.9 q/ha
same,Radioactivity,[6],11.42 dpm/mg dry weight
same,activation at 500 ppm,[6]; Zea mays,146%
same,Stimulation,[7],39.0%
same,"Sugar content, increase",[8],53.8%
same,"Sugar yield, increase",[8],62%
same,Berry yield,[8],232 q/ha
same,Sugar content,[8],20.0%
same,Sugar yield,[8],46.40 q/ha
same,"Grain yield, increase",[9],39%
same,Grain yield,[9],41.22 q/ha
same,Radioactivity,[10],15.5 mu Ci/100 mg
same,activation at 200 ppm,[10]; Glycine max,30.2%
same,labelled phosphate in nucleic acid fraction,[11],29.3 1000 cpm/g
same,activation at 200 ppm,[11]; Triticum aestivum,68.5%
"CCC[n+]1c[nH]c2ccccc21.[Br-] [N--(n-Propyl)-benzimidazolium bromide, N-(n-propyl)-benzimidazolium bromide]","Air-dry substance, relative",[1]; 2 kg/ha,14.10%
same,"Crude proteins, relative",[1]; 2 kg/ha,21.7%
same,"Real protein content, relative",[1]; 2 kg/ha,4.4%
same,Green weight,[1],389 kg
same,"Total nitrogen content, absolute",[1]; 2 kg/ha,0.86%
same,"Real protein content, absolute",[1]; 2 kg/ha,1.4%
same,"Crude proteins, absolute",[1]; 2 kg/ha,2.25%
same,"Total carbon content, absolute",[1]; 2 kg/ha,10.27%
same,"Air-dry substance, absolute",[1]; 2 kg/ha,23.48%
same,Carbon/nitrogen ratio,"[1]; 2 kg/ha, control 30.86",28.67
same,Cell number/g,[2],327.5 10^4 units
same,Daily growth,[2],22.8 mg
same,"Weight of grains, increase",[3],65%
same,Weight of grains collected from 100 ears,[3],357.73 g
same,Dry substance,[4]; with kinetin (2 ppm),3.17%
same,Dry weight of the callus,[4]; with kinetin (2 ppm),209.13 mg
same,Fresh weight of the callus,[4]; with kinetin (2 ppm),6.5772 g
same,"Growth, dry weight",[4]; with kinetin (2 ppm),18.78
same,"Growth, fresh weight",[4]; with kinetin (2 ppm),20.92
same,Speed of growth,[4]; with kinetin (2 ppm),128.10 mg/day
same,percentage growth promoting effect,[4]; with kinetin,134%
same,Dry substance,[4]; without kinetin,7.07%
same,Dry weight of the callus,[4]; without kinetin,43.29 mg
same,Fresh weight of the callus,[4]; without kinetin,0.6120 g
same,"Growth, dry weight",[4]; without kinetin,3.09
same,"Growth, fresh weight",[4]; without kinetin,1.04
same,Speed of growth,[4]; without kinetin,6.36 mg/day
same,percentage growth promoting effect,[4]; without kinetin,322%
same,"Grain yield, increase",[5],12.4%
same,Grain yield,[5],149.3 q/ha
same,Radioactivity,[6],8.76 dpm/mg dry weight
same,Stimulation,[7],42.7%
same,Radioactivity of the TCA-insoluble fraction,[7]; control 3.17,4.52 1000 dpm/200 mg fresh weight
same,"Sugar content, increase",[8],21.5%
same,"Sugar yield, increase",[8],27%
same,Berry yield,[8],226 q/ha
same,Sugar content,[8],15.8%
same,Sugar yield,[8],35.70 q/ha
same,"Grain yield, increase",[9],30%
same,Grain yield,[9],38.67 q/ha
same,Radioactivity,[10],13.7 mu Ci/100 mg
same,labelled phosphate in nucleic acid fraction,[11],22.8 1000 cpm/g
